# Reference: publication PMC9169360, “Molecular Imaging-Derived Biomarker of Cardiac Nerve Integrity — Introducing High NET Affinity PET Probe ^18F-AF78” (Theranostics, 2022)
# Read-outs that look alike come from different tables or passages of the source.
# How the values were obtained:
# [1] = target: T1, norepinephrine transporter (NET) (Homo sapiens, UniProt P23975); assay: Competitive cell uptake assay against 3H-norepinephrine in SK-N-SH human neuroblastoma cells; format: cell-based
# T1 construct: cells naturally expressing NET; host or cells: SK-N-SH human neuroblastoma cells
# T1 sequence (P23975 whole entry): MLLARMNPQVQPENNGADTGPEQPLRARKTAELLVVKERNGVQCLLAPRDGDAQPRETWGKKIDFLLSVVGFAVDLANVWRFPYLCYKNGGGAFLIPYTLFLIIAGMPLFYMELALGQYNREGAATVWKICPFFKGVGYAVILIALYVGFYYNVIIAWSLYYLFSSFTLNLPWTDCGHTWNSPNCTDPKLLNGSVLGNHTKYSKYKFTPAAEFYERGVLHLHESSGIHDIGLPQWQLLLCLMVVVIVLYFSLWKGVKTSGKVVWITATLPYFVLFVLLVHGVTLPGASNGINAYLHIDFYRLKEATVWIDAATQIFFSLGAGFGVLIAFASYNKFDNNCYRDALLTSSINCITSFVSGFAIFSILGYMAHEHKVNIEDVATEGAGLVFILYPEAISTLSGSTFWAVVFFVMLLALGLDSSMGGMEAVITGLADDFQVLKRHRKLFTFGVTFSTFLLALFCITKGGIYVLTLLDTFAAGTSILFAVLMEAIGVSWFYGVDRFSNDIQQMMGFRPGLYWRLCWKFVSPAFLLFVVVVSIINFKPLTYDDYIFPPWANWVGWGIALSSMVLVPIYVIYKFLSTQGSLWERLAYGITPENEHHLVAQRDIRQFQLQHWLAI
# From the text: SK-N-SH (human neuroblastoma cell line) cells naturally expressing NET were cultivated according to the instructions from the supplier (Sigma-Aldrich Chemie GmbH, Taufkirchen, Germany). […] Cell lysates were collected and measured in a liquid scintillation analyzer.
# [2] = design: method as in PMID 28322043; details: rhesus macaque monkeys, not before 90 min after radiotracer injection; cited from earlier work
# [3] = target: T2, norepinephrine transporter (NET) (Oryctolagus cuniculus, UniProt G1TDF9); assay: PET imaging and cardiac uptake in rabbits with or without DMI blocking; format: in vivo, New Zealand white rabbits; details: DMI 1.5 mg/kg 10 min before tracer, SUV, n = 5
# T2 construct: from tissue; host or cells: heart of living New Zealand white rabbits (in vivo PET, gamma counting)
# T2 sequence (G1TDF9 1-617): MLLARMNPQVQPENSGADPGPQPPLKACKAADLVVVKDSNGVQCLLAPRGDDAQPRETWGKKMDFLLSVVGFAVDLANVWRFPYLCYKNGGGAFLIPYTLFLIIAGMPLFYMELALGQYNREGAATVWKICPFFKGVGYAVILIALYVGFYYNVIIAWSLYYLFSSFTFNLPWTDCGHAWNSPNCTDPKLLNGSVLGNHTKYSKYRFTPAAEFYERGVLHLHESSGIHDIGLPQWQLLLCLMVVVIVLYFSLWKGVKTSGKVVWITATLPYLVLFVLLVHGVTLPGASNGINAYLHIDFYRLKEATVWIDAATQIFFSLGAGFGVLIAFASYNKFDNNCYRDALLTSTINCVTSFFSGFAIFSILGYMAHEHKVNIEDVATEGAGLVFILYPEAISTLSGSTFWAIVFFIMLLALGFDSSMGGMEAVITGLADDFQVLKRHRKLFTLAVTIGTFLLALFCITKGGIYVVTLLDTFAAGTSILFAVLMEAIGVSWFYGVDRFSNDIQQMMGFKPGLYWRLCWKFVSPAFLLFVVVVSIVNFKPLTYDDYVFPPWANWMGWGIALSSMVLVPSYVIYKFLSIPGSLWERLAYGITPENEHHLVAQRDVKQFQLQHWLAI
# Description: (§1) Male Wistar rats (n = 4, weighing 250-400 g) and New Zealand white rabbits (n = 5, weighing 3.2-3.6 kg) were used for cardiac uptake studies. Anesthesia was induced and maintained during the experiment by 2% isoflurane. Large animal PET studies were performed on cynomolgus monkeys (n = 4, weighing 3.9-4.2 kg). Induction of anesthesia in NHPs was conducted by intramuscular injection of ketamine (1.5 mg/kg) and xylazine (0.6 mg/kg) to allow the preparation and handling of the animals. After a tracheal cannula was inserted, 1.5% sevoflurane (SEVOFLURANE Inhalation Solution, Pfizer Japan Inc., Tokyo, Japan) vaporized with 100% oxygen was inhaled, and the tidal volume and respiratory rate of the ventilator were monitored and kept in the normal range throughout the imaging sessions with an anesthesia workstation (Apollo®, Drägerwerk AG & Co. KGaA, Lübeck, Germany).
# ^18F-AF78 (3-4 MBq) and ^123I-MIBG (approximately 2.5 MBq) were injected into rabbits maintained under anesthesia via the marginal ear vein in a single dose. The NET blocker DMI (1.5 mg/kg) was injected 10 min before radiotracer administration in the blocking study. A 10-min dynamic scan was initiated immediately after the radiotracer injection. The animals were euthanized immediately after the scan, and the organs of interest were harvested and measured in a gamma counter to calculate biodistribution. […]
# [4] = Dynamic PET imaging and biodistribution of the radiotracer in healthy nonhuman primates; format: in vivo, cynomolgus monkeys; details: NHP controls
# Description: as §1
# NHPs were maintained under anesthesia during imaging and were studied with a PET scanner (PCA-2000A, Toshiba Medical Systems Corporation, Tochigi, Japan). After a 5-min transmission scan and a bolus intravenous (i.v.) injection of the radiotracer ^18F-AF78 (approximately 20 MBq) via the saphenous vein, a 60-min dynamic PET scan (10 s × 12, 30 s × 6, and 300 s × 11) was initiated. For the blocking study, DMI was injected 10 min before radiotracer administration, after which the PET scan commenced immediately (n = 4). For the DMI chase study, DMI (1 mg/kg, n = 4) was injected 10 min after radiotracer administration, while the PET scan was initiated simultaneously with radiotracer administration. The catecholamine releasing stimulator tyramine (TYR) was also used in a chase protocol, with 50 µg/kg each injection (n = 4) injected intermittently (5 times, 10-min intervals) after radiotracer administration. The radiotracers ^18F-AF78 and ^123I-MIBG were formulated in saline for the animal studies. Control animals received normal saline. The inhibitors PhB, DMI and TYR were first dissolved in a minimum amount of DMSO and diluted with saline for administration with a final concentration of DMSO lower than 10%. The experimental timeline is provided in the supplementary material.
# (§2) PET imaging for rats, rabbits and NHPs was performed from the chest to the upper abdomen, including the heart, lungs, liver and part of the intestines. The reconstructed images were analyzed using AMIDE imaging software (version 1.0.1). For kinetic studies in rats and NHPs, the tissue uptake was determined as standardized uptake values (SUVs), from which time-activity curves of different organs, e.g., heart, blood, lung and liver, were generated with transmission computed tomography images for topographic localization.
# [5] = target: T3, norepinephrine transporter (NET) (Rattus norvegicus, UniProt Q63380); assay: PET imaging and biodistribution in rats with or without PhB blocking; format: in vivo, Wistar rats
# T3 construct: from tissue; host or cells: heart of living Wistar rats (in vivo PET, ex vivo tissue counting)
# T3 sequence (Q63380 1-617): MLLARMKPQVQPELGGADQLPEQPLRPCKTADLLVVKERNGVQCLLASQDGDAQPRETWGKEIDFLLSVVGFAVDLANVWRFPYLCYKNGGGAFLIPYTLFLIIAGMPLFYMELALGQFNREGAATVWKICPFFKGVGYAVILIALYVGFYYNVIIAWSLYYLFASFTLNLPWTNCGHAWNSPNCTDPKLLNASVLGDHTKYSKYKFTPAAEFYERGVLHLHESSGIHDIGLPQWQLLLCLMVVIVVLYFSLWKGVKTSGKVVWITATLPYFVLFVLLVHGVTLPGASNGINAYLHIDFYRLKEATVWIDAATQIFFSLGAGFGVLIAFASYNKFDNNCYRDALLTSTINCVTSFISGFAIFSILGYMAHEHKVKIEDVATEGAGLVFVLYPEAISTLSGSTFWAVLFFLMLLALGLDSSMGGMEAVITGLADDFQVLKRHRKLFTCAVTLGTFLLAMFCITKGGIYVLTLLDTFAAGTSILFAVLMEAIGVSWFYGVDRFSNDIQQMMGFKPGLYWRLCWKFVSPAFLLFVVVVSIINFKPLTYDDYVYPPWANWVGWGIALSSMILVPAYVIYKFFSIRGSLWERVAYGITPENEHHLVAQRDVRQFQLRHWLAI
# Description: as §1
# A small-animal PET system (microPET FOCUS 120, Siemens, Erlangen, Germany) was used for the rat studies. […] The organ-to-blood ratios were calculated following weight and decay correction of tissue counts.
# PET imaging for rats, rabbits and NHPs was performed from the chest to the upper abdomen, including the heart, lungs, liver and part of the intestines. The reconstructed images were analyzed using AMIDE imaging software (version 1.0.1). […]
# [6] = tested on: norepinephrine transporter (NET); assay: PET kinetic studies in nonhuman primates with DMI blocking, DMI chase and tyramine chase; format: in vivo, cynomolgus monkeys; details: NHP heart, 60 min
# Description: as §1
# NHPs were maintained under anesthesia during imaging and were studied with a PET scanner (PCA-2000A, Toshiba Medical Systems Corporation, Tochigi, Japan). After a 5-min transmission scan and a bolus intravenous (i.v.) injection of the radiotracer ^18F-AF78 (approximately 20 MBq) via the saphenous vein, a 60-min dynamic PET scan (10 s × 12, 30 s × 6, and 300 s × 11) was initiated. For the blocking study, DMI was injected 10 min before radiotracer administration, after which the PET scan commenced immediately (n = 4). For the DMI chase study, DMI (1 mg/kg, n = 4) was injected 10 min after radiotracer administration, while the PET scan was initiated simultaneously with radiotracer administration. […]
# as §2
# [7] = SK-N-SH cells, 60 min, 37 °C, mean ± SD, n = 4, read-out: IC50, competitive cell uptake affinity against 3H-NE
smiles,measurement,setting,value
"N=C(N)NCCc1ccc(O)c(F)c1 [3F-PHPG, 3-fluoro-4-hydroxyphenethylguanidine]",IC50,[1]; [7],780 ± 60 nM
same,heart-to-liver ratio,[2],2.5 ± 0.3
"N=C(N)NCCc1ccc(F)c(O)c1 [4F-MHPG, 4-fluoro-3-hydroxyphenethylguanidine]",IC50,[1]; [7],2780 ± 1220 nM
same,heart-to-liver ratio,[2],2.2 ± 0.8
"NCCc1cc(O)c(O)cc1F [6F-DA, 6-fluorodopamine]",IC50,[1],1200 ± 330 nM
"N=C(N)NCCc1ccc(OCCCF)c(F)c1 [AF78, 1-(3-fluoro-4-(3-fluoropropoxy)phenethyl)guanidine]",cardiac uptake in the DMI pretreatment group,[3],reduced significantly
same,heart-to-blood pool ratio,[4]; 5 min postinjection,2.03 ± 0.53
same,heart-to-liver ratio,[4]; 5 min postinjection,0.38 ± 0.29
same,heart-to-liver ratio,[4]; 30 min postinjection,0.95 ± 0.20
same,absolute SUV in the blood pool,[4]; 60 min postinjection,0.72 ± 0.34 SUV
same,absolute SUV in the liver,[4]; 60 min postinjection,0.91 ± 0.47 SUV
same,heart-to-blood pool ratio,[4]; 60 min postinjection,1.82 ± 0.71
same,heart-to-liver ratio,[4]; 60 min postinjection,1.60 ± 0.38
same,cardiac SUV,"[4]; heart, 5 min postinjection",1.74 ± 0.24 SUV
same,"cardiac uptake, mean SUV","[4]; heart, 60 min postinjection",1.46 ± 0.18 SUV
same,IC50,[1]; [7],420 ± 140 nM
same,fold higher affinity of AF78 relative to MIBG,"[1]; ratio of IC50 values, SK-N-SH cells",4.2 fold
same,cardiac uptake upon PhB pretreatment,"[5]; PhB 50 mg/kg 10 min before tracer, time-activity curves",decreased rapidly
same,"organ-to-blood ratios, early (10 min) versus late (60 min) phase","[5]; biodistribution study, controls",unchanged
same,cardiac mean SUV after DMI chase,[6]; DMI 1 mg/kg 10 min after tracer,1.40 ± 0.07 SUV
same,cardiac mean SUV after DMI blocking,[6]; DMI injected 10 min before tracer,0.45 ± 0.05 SUV
same,cardiac mean SUV after intermittent TYR chase,[6]; tyramine 50 µg/kg 5 times at 10-min intervals,0.92 ± 0.20 SUV
"N=C(N)NCc1ccc(OCCCF)c(Br)c1 [FBBG, flubrobenguane]",IC50,[1]; [7],2280 ± 1050 nM
"CN[C@@H](C)[C@H](O)c1cccc(O)c1 [HED, metahydroxyephedrine]",IC50,[1],390 ± 110 nM
"N=C(N)NCc1cccc(I)c1 [MIBG, metaiodobenzylguanidine, reference compound]",cardiac uptake in the DMI pretreatment group,[3],reduced significantly
same,IC50,[1]; [7],1750 ± 470 nM
